From ChEMBL document CHEMBL1134179, “Equilibrium and kinetics studies of transnitrosation between S-nitrosothiols and thiols” (Bioorg Med Chem Lett, 2001)

Assay: pKa value was determined
Type: physicochemical

Row | Compound | pKa
1 | N[C@@H](CCC(=O)N[C@@H](CS)C(=O)NCC(=O)O)C(=O)O [GLUTATHIONE] | 8.75
2 | CCOC(=O)[C@@H](N)CS | 6.5
3 | CC(=O)NC(C(=O)O)C(C)(C)S (stereo not given) [N-ACETYL PENICILLAMINE] | 9.9
4 | CC(=O)N[C@@H](CS)C(=O)O [ACETYLCYSTEINE] | 9.52
5 | CC(C)(S)[C@@H](N)C(=O)O [PENICILLAMINE] | 8.53
